Measurements published in ChEMBL document CHEMBL4804284.

How the values were obtained:
Set-up in all cases: scale not given: the % may be the effect or the level left
[1] = target: Mitogen-activated protein kinase kinase kinase kinase 3 (Homo sapiens) (UniProt Q8IVH8); test: Inhibition of DNA-tagged human MAP4K3 assessed as percent of control at 50000 nM by qPCR analysis relative to control
[2] = target: Mitogen-activated protein kinase 3 (Homo sapiens) (UniProt P27361); test: Inhibition of DNA-tagged human ERK1 assessed as percent of control at 50000 nM by qPCR analysis relative to control
[3] = target: Protein-tyrosine kinase 2-beta (Homo sapiens) (UniProt Q14289); test: Inhibition of DNA-tagged human PYK2 assessed as percent of control at 50000 nM by qPCR analysis relative to control
[4] = target: Platelet-derived growth factor receptor alpha (Homo sapiens) (UniProt P16234); test: Inhibition of DNA-tagged human PDGFRA assessed as percent of control at 50000 nM by qPCR analysis relative to control
[5] = target: Cyclin-dependent kinase 11B (Homo sapiens) (UniProt P21127); test: Inhibition of DNA-tagged human CDC2L1 assessed as percent of control at 50000 nM by qPCR analysis relative to control
[6] = tested on: Epidermal growth factor receptor (Homo sapiens), P00533 [UNDEFINED MUTATION]; test: Inhibition of DNA-tagged human EGFR L747-S752del/P753S double mutant assessed as percent of control at 50000 nM by qPCR analysis relative to control
[7] = target: Ephrin type-A receptor 5 (Homo sapiens) (UniProt P54756); test: Inhibition of DNA-tagged human EPHA5 assessed as percent of control at 50000 nM by qPCR analysis relative to control
[8] = target: Mitogen-activated protein kinase 6 (Homo sapiens) (UniProt Q16659); test: Inhibition of DNA-tagged human ERK3 assessed as percent of control at 50000 nM by qPCR analysis relative to control
[9] = target: Misshapen-like kinase 1 (Homo sapiens) (UniProt Q8N4C8); test: Inhibition of DNA-tagged human MINK assessed as percent of control at 50000 nM by qPCR analysis relative to control
[10] = target: Mitogen-activated protein kinase 7 (Homo sapiens) (UniProt Q13164); test: Inhibition of DNA-tagged human ERK5 assessed as percent of control at 50000 nM by qPCR analysis relative to control
[11] = target: Serine/threonine-protein kinase 36 (Homo sapiens) (UniProt Q9NRP7); test: Inhibition of DNA-tagged human STK36 assessed as percent of control at 50000 nM by qPCR analysis relative to control
[12] = target: Serine/threonine-protein kinase 35 (Homo sapiens) (UniProt Q8TDR2); test: Inhibition of DNA-tagged human STK35 assessed as percent of control at 50000 nM by qPCR analysis relative to control
[13] = target: Tyrosine-protein kinase FRK (Homo sapiens) (UniProt P42685); test: Inhibition of DNA-tagged human FRK assessed as percent of control at 50000 nM by qPCR analysis relative to control
[14] = target: Serine/threonine-protein kinase 3 (Homo sapiens) (UniProt Q13188); test: Inhibition of DNA-tagged human MST2 assessed as percent of control at 50000 nM by qPCR analysis relative to control
[15] = target: Fibroblast growth factor receptor 3 (Homo sapiens) (UniProt P22607); test: Inhibition of DNA-tagged human FGFR3 assessed as percent of control at 50000 nM by qPCR analysis relative to control
[16] = target: Atypical kinase COQ8A, mitochondrial (Homo sapiens) (UniProt Q8NI60); test: Inhibition of DNA-tagged human ADCK3 assessed as percent of control at 50000 nM by qPCR analysis relative to control
[17] = target: cAMP-dependent protein kinase catalytic subunit beta (Homo sapiens) (UniProt P22694); test: Inhibition of DNA-tagged human PKAC-beta assessed as percent of control at 50000 nM by qPCR analysis relative to control
[18] = target: Cyclin-dependent kinase 11A (Homo sapiens) (UniProt Q9UQ88); test: Inhibition of DNA-tagged human CDC2L2 assessed as percent of control at 50000 nM by qPCR analysis relative to control
[19] = tested on: eIF-2-alpha kinase GCN2 (Homo sapiens), Q9P2K8 [S808G]; test: Inhibition of DNA-tagged human GCN2 S808G mutant kinase domain 2 assessed as percent of control at 50000 nM by qPCR analysis relative to control
[20] = target: Serine/threonine-protein kinase MAK (Homo sapiens) (UniProt P20794); test: Inhibition of DNA-tagged human MAK assessed as percent of control at 50000 nM by qPCR analysis relative to control
[21] = target: Dual specificity tyrosine-phosphorylation-regulated kinase 2 (Homo sapiens) (UniProt Q92630); test: Inhibition of DNA-tagged human DYRK2 assessed as percent of control at 50000 nM by qPCR analysis relative to control
[22] = target: Serine/threonine-protein kinase D3 (Homo sapiens) (UniProt O94806); test: Inhibition of DNA-tagged human PRKD3 assessed as percent of control at 50000 nM by qPCR analysis relative to control
[23] = target: Homeodomain-interacting protein kinase 2 (Homo sapiens) (UniProt Q9H2X6); test: Inhibition of DNA-tagged human HIPK2 assessed as percent of control at 50000 nM by qPCR analysis relative to control
[24] = target: Dual specificity protein kinase CLK1 (Homo sapiens) (UniProt P49759); test: Inhibition of DNA-tagged human CLK1 assessed as percent of control at 50000 nM by qPCR analysis relative to control
[25] = target: Ribosomal protein S6 kinase alpha-4 (Homo sapiens) (UniProt O75676); test: Inhibition of DNA-tagged human C-terminal RPS6KA4 kinase domain 2 assessed as percent of control at 50000 nM by qPCR analysis relative to control
[26] = target: Phosphorylase b kinase gamma catalytic chain, liver/testis isoform (Homo sapiens) (UniProt P15735); test: Inhibition of DNA-tagged human PHKG2 assessed as percent of control at 50000 nM by qPCR analysis relative to control
[27] = target: Hepatocyte growth factor receptor (Homo sapiens) (UniProt P08581); test: Inhibition of DNA-tagged human MET assessed as percent of control at 50000 nM by qPCR analysis relative to control
[28] = target: Serine/threonine-protein kinase pim-3 (Homo sapiens) (UniProt Q86V86); test: Inhibition of DNA-tagged human PIM3 assessed as percent of control at 50000 nM by qPCR analysis relative to control
[29] = target: Calcium-dependent protein kinase 1 (Plasmodium falciparum) (UniProt P62344); test: Inhibition of DNA-tagged Plasmodium falciparum CDPK1 assessed as percent of control at 50000 nM by qPCR analysis relative to control
[30] = tested on: Epidermal growth factor receptor (Homo sapiens), P00533 [T790M]; test: Inhibition of DNA-tagged human EGFR T790M mutant assessed as percent of control at 50000 nM by qPCR analysis relative to control

Tyrosine-protein kinase FRK (Homo sapiens), sequence (P42685 whole entry): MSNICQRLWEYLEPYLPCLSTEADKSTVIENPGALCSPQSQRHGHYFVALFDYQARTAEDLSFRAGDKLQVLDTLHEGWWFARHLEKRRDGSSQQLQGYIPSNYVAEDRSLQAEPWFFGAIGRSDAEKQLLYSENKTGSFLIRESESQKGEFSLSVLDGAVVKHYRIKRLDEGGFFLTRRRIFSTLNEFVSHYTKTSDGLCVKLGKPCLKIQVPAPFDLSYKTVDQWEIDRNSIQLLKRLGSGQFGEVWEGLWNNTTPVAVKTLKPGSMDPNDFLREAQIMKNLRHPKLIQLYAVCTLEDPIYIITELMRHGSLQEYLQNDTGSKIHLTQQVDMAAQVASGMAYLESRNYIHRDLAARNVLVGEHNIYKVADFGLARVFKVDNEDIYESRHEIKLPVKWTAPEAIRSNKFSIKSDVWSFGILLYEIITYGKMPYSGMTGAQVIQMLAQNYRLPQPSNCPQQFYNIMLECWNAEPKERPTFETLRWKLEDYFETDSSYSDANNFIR
Cyclin-dependent kinase 11B (Homo sapiens), sequence (P21127 whole entry): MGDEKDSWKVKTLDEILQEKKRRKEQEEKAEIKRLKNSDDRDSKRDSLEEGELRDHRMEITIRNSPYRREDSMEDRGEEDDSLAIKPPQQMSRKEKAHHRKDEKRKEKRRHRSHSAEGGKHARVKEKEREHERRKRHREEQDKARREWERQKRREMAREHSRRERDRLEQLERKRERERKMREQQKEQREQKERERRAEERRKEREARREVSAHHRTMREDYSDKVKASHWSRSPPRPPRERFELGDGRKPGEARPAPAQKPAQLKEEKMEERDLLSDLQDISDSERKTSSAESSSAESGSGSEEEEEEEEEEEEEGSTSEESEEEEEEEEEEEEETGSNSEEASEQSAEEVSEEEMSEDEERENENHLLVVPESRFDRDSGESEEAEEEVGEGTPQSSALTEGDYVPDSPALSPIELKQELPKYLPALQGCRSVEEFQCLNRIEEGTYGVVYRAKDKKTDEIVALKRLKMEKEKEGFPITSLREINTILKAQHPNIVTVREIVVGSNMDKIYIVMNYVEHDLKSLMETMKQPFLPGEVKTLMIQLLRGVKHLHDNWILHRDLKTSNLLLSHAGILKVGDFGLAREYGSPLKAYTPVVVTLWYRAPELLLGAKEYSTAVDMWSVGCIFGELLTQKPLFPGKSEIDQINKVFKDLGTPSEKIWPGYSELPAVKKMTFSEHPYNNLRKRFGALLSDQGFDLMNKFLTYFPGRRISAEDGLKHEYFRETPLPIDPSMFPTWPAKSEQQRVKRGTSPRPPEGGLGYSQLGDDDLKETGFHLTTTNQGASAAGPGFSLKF
Protein-tyrosine kinase 2-beta (Homo sapiens), sequence (Q14289 whole entry, looked up): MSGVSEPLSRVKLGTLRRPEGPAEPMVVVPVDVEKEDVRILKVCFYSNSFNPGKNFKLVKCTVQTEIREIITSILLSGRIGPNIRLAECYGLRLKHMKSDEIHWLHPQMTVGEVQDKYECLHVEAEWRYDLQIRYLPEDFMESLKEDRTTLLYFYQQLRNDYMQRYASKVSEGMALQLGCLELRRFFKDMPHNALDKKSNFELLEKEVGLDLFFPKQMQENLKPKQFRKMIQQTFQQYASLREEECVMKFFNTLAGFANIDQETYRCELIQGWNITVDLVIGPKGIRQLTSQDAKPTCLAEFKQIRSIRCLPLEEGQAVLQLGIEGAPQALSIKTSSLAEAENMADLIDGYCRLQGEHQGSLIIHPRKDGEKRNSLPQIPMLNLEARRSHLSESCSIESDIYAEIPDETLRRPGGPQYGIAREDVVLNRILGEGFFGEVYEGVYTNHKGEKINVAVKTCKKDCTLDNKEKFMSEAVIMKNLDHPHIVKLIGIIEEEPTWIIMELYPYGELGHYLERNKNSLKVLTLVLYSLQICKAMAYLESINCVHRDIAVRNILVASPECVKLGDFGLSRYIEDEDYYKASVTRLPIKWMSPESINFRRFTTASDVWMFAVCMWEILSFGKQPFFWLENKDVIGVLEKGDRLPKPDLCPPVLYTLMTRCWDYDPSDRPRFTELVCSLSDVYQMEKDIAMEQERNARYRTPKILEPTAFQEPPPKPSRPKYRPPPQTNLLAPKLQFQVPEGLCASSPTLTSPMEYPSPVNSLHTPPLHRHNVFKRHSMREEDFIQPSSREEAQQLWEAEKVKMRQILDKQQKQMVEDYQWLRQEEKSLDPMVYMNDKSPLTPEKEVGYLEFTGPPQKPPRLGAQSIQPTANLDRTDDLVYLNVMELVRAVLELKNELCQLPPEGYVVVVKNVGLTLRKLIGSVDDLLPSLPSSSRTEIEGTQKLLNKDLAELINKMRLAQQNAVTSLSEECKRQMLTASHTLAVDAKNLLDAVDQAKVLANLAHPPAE
Calcium-dependent protein kinase 1 (Plasmodium falciparum), sequence (P62344 2-524 limits assumed): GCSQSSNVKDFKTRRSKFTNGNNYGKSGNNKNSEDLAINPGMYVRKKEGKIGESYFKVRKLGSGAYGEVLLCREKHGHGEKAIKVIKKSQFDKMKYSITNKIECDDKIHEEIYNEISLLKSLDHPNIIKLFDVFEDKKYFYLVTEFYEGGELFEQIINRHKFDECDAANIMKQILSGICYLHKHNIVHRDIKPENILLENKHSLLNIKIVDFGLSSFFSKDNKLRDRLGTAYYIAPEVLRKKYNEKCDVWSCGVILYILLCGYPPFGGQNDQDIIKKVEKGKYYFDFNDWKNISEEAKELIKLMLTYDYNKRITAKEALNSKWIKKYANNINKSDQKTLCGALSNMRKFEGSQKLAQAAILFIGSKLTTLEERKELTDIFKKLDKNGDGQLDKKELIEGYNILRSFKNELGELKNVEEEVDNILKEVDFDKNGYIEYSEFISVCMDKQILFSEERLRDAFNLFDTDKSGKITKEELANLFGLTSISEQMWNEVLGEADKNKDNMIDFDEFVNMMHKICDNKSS
Mitogen-activated protein kinase 6 (Homo sapiens), sequence (Q16659 whole entry): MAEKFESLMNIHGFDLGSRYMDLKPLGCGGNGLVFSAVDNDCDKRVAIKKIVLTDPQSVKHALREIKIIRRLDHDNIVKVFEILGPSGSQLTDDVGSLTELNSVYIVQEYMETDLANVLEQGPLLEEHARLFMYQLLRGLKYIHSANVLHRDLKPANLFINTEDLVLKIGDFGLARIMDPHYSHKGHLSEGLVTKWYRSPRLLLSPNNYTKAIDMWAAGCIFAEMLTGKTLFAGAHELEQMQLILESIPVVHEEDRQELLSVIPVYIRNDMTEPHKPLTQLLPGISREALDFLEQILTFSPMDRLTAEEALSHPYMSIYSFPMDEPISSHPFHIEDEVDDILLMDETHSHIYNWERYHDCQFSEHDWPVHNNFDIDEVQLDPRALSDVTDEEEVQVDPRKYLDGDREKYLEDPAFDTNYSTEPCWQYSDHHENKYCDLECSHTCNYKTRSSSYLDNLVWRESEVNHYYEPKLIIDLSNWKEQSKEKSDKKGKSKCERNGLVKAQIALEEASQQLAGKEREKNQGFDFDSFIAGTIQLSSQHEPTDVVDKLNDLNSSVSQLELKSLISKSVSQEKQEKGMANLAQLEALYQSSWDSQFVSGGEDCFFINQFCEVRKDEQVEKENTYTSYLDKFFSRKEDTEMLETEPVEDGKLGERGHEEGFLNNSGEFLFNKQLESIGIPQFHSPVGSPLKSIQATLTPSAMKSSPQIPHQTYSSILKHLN
Mitogen-activated protein kinase 3 (Homo sapiens), sequence (P27361 whole entry): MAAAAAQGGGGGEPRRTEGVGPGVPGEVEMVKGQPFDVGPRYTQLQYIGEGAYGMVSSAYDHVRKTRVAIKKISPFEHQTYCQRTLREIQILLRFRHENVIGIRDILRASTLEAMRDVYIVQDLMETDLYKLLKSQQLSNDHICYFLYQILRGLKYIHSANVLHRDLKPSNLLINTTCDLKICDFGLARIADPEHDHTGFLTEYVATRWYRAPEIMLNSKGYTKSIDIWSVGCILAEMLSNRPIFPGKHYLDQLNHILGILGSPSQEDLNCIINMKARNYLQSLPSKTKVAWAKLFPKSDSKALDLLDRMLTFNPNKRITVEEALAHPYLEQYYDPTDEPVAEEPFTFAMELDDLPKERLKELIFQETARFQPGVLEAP
Ribosomal protein S6 kinase alpha-4 (Homo sapiens), sequence (O75676 whole entry, looked up, the tested form may be a part, canonical isoform): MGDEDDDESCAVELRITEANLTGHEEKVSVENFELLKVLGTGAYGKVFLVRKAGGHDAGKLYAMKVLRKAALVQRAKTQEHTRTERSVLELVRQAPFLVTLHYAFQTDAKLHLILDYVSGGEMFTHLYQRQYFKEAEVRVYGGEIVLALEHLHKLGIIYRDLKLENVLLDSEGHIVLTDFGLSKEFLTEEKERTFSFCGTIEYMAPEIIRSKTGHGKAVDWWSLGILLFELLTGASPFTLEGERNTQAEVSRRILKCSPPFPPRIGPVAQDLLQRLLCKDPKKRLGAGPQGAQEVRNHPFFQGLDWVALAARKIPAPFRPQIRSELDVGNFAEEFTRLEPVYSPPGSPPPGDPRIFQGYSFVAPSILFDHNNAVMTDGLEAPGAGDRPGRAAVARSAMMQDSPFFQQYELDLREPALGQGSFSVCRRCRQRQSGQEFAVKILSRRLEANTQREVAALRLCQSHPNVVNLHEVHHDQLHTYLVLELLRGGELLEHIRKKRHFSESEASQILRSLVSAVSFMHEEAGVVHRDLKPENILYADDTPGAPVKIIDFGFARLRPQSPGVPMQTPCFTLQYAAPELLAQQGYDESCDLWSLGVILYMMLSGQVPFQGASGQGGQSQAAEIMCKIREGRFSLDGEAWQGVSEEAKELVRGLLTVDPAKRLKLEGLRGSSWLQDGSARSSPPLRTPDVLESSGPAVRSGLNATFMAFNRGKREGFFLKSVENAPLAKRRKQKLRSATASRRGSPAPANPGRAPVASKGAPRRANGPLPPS

Compound `CN1C(=O)/C(=C2/C(=O)Nc3ccccc32)c2ccccc21` has an Activity [1] of 90%, an Activity [2] of 100% and an Activity [3] of 100%. For the same compound, the Activity [4] was 85%, the Activity [5] was 87% and the Activity [6] was 64%. For the same compound, the Activity [7] was 96%, the Activity [8] was 100% and the Activity [9] was 75%. The Activity [10] was 97%, the Activity [11] was 90% and the Activity [12] was 89%. The Activity [13] was 96%, the Activity [14] was 99% and the Activity [15] was 100%. The Activity [16] was 74%, the Activity [17] was 91% and the Activity [18] was 100%. It also gave an Activity [19] of 88%, an Activity [20] of 71% and an Activity [21] of 84%. For the same compound, the Activity [22] was 94%, the Activity [23] was 66% and the Activity [24] was 100%. The Activity [25] was 89%, the Activity [26] was 100% and the Activity [27] was 100%. For the same compound, the Activity [28] was 79%, the Activity [29] was 87% and the Activity [30] was 96%.
